According to patent US11576916B2, “Methods of preventing or treating ophthalmic diseases” (KINARUS AG, priority 2017, dated 2023):
Counter-ions that a name gives are not always drawn.

What was measured:
[1] = system: choroidal neovascularization (CNV) in a mouse model of age-related macular degeneration; assay: Laser-induced CNV mouse model of AMD: retinal thickness by SD-OCT; type: in vivo, C57BL/6J mice; settings: after 14 days of treatment; for CNV area retinal thickness, comparison between treatments (in words): versus vehicle, single agents or positive control aflibercept; for Difference in retinal thickness in CNV area as compared to the total retinal thickness: mean ± SD per lesion, vehicle 19.9 ± 20.7; for Difference in retinal thickness in CNV area as compared to the total retinal thickness / Total retinal thickness: SD-OCT, pioglitazone/pamapimod oral once daily, aflibercept 80 μg IVT per eye; for Total retinal thickness: mean ± SD
Protocol: (§1) CNV (choroidal neovascularization) in mice or rats is an accepted model to mimic the wet form of age-related macular degeneration (AMD). The model is induced by laser photocoagulation which creates breaks in Bruchs membrane. The subsequent pathological cascade includes inflammation, angiogenesis and proteolysis.
(§2) A study in a mouse model was performed to evaluate the efficacy of pioglitazone and pamapimod each alone or in combination on the development of CNV. Three laser burns were used to induce CNV in the eyes of C57Bl/6J mice. Pioglitazone or pamapimod or the combination of pioglitazone/pamapimod were administered orally once daily to groups of animals starting one day prior to lasering.
(§3) Male 7-week old C57BL/6J mice (Janvier Labs, France) were obtained and housed at a constant temperature (22±+1° C.) in a light-controlled environment with ad libitum access to food and water.
(§4) For CNV induction, animals were anesthetized with an intraperitoneal injection of ketamine (37.5 mg/kg; Ketalar, Pfizer Oy Animal Health, Helsinki, Finland) and medetomidine (0.45 mg/kg; Domitor, Orion Oy, Espoo, Finland). A drop of 0.5% tropicamid (Santen) was applied on the cornea to dilate the pupils. Laser photocoagulation was performed once using a 532 nm diode laser Lumenis Novus Spectra (Lumenis Ltd., Israel) attached to a slit lamp. A coverslip and Viscotears® gel (Novartis) were used to applanate the cornea. Three laser lesions were performed per eye. Following lasering, anesthesia was reversed by u2-antagonist medetomidine, atipamezole (0.5 mg/kg i.p., Antisedan, Orion Pharma, Espoo, Finland).
(§5) Oral drug formulations were prepared in a vehicle adjusted to 4.8±0.05 using buffer. Test compounds [pioglitazone HCl (2.5 mg/ml), pamapimod (10 mg/ml) and combination pioglitazone HCl (2.5 mg/ml)+pamapimod (10 mg/ml)] were formulated in this vehicle and sonicated prior to administration (approx. 3 min).
Aflibercept (Eylea®, Bayer Pharma AG) was purchased as a ready-to-use solution for intravitreal injections at a concentration of 40 mg of aflibercept in 1 ml solution. The dose of 80 μg (injection volume of 2 μl) of aflibercept per mouse eye was used in the present study.
Compounds were administered either orally by gastric lavage (pioglitazone, pamapimod) at a dose of 0.2 ml volume per 20 g mouse weight or by IVT (aflibercept) using a 5 μl glass microsyringe (Hamilton Bonaduz AG, Bonaduz, Switzerland). Aflibercept was injected only into the lasered right eye. The injection volume was 2 μl per eye.
CNV lesions were monitored using Envisu R2200 SD-OCT (Spectral Domain Optical Coherence Tomography system; Bioptigen Inc./Leica) in anesthetized mice as described above. The thickness of each retina was measured from 24 sites of randomly overlaid grid and at all three lasered sites. The total retinal thickness was considered as the thickness of all layers from nerve fiber layer to RPE (healthy measurement sites) or to an implied line connecting the RPE around the site of damage (lasered sites).
Quantitative data was graphed and analyzed using GraphPad Prism software (v. 7.0, GraphPad Software Inc.). The D'Agostino & Pearson normality test was used for each parameter. […] Differences were considered to be statistically significant at the P<0.05 level.

[2] = system: choroidal neovascularization (CNV) in a mouse model of age-related macular degeneration; assay: Laser-induced CNV mouse model of AMD: isolectin B4 staining of choroidal flat-mounts (CNV lesion area); type: in vivo, C57BL/6J mice; settings: for Formation of CNV in mice, in words: conclusion of the study, versus vehicle
Protocol: as §1, §2, §3, §4, §5
Aflibercept (Eylea®, Bayer Pharma AG) was purchased as a ready-to-use solution for intravitreal injections at a concentration of 40 mg of aflibercept in 1 ml solution. The dose of 80 μg (injection volume of 2 μl) of aflibercept per mouse eye was used in the present study. […]
The flat-mount choroids were stained with fluorescein-labeled isolectin B4 (Vector Laboratories) to detect lesion CNV area and imaged using Leica DM IRBE microscope (Leica Microsystems, Germany) with an epifluorescent attachment and analyzed using Image J software (v.1.51f, National Institutes of Health, USA).
Quantitative data was graphed and analyzed using GraphPad Prism software (v. 7.0, GraphPad Software Inc.). […]

Row | Molecule | CNV area retinal thickness, comparison between treatments (in words) [1] | Difference in retinal thickness in CNV area as compared to the total retinal thickness ([1]; HCl) | Difference in retinal thickness in CNV area as compared to the total retinal thickness ([1]; listed as pioglitazone, HCl) | Total retinal thickness [1] | Formation of CNV in mice, in words [2] | Difference in retinal thickness in CNV area as compared to the total retinal thickness [1] | Difference in retinal thickness in CNV area as compared to the total retinal thickness ([1]; listed as pamapimod) | Isolectin B4 positive area per CNV lesion (new vessel area), in words ([2]; choroidal flat-mounts, after 14 days of treatment, Kruskal-Wallis test with Dunn's multiple comparisons)
1 | CCc1ccc(CCOc2ccc(CC3SC(=O)NC3=O)cc2)nc1 (centres unmarked) [STR001, pioglitazone HCl, reference compound] | superior to the positive control Aflibercept | 9.86 ± 17.7% | 9.86±17.7% | 215.8 ± 2.9 μm | significantly decreased |  |  | 
2 | Aflibercept: Aflibercept (Eylea®, Bayer Pharma AG), ready-to-use solution for intravitreal injections; positive control |  |  |  | 215.7 ± 6.5 μm | significantly decreased | 16.1±26.7% |  | 
3 | Cn1c(=O)c(Oc2ccc(F)cc2F)cc2cnc(NC(CCO)CCO)nc21 [STR002, 6-(2,4-Difluorophenoxy)-2-[3-hydroxy-1-(2-hydroxyethyl)-propylamino]-8-methyl-8H-pyrido[2,3-d]pyrimidin-7-one] | superior to the positive control Aflibercept |  |  | 216.2 ± 6.0 μm | significantly decreased | 7.75 ± 22.4% | 7.75±22.4% | significantly different from the pioglitazone alone group
